Assay [1] addresses human vitronectin receptor αvβ3 (Homo sapiens, UniProt P05106+P06756). Nature of the assay: Kistrin binding assay (K/VnR, αvβ3 ELISA test). The note with it: inhibition of binding of kistrin to human vitronectin receptor. From the text: The inhibition of the binding of kistrin to human vitronectin receptor (VnR) described below is a test method by which the antagonistic action of the compounds of the invention on the vitronectin receptor αvβ3 can be determined (αvβ3 ELISA Test; the test method is abbreviated as “K/VnR” in the listing of the test results).
Kistrin is purified according to the methods of Dennis et al., as described in Proc. Natl. Acad. Sci. USA 87 (1989) 2471 and Proteins: Structure, Function and Genetics 15 (1993) 312.
Purification of Human Vitronectin Receptor (αvβ3)
144 (1987) 475. Human vitronectin receptor αvβ3 can also be obtained from some cell lines (for example from 293 cells, a human embryonic kidney cell line) which are co-transfected with DNA sequences for both subunits αv and β3 of the vitronectin receptor. The subunits are extracted with octyl glycoside and then chromatographed through concanavalin A, heparin-Sepharose and S-300.
Murine monoclonal antibodies which are specific for the β3 subunits of the vitronectin receptor, are prepared according to the method of Newman et al., Blood, 1985, 227, or by a similar process. The rabbit Fab 2 anti-mouse Fc conjugate to horseradish peroxidase (anti-mouse Fc HRP) was obtained from Pel Freeze (Catalog No. 715 305-1).
The ability of substances to inhibit the binding of kistrin to the vitronectin receptor can be determined using an ELISA test. For this purpose, Nunc 96-well microtiter plates are coated with a solution of kistrin (0.002 mg/ml) according to the method of Dennis et al., as described in Proteins: Structure, Function and Genetics 15 (1993) 312. The plates are then washed twice with PBS/0.05% Tween-20 and blocked by incubating (60 min) with bovine serum albumin (BSA, 0.5%, RIA grade or better) in buffer solution (Tris-HCl (50 mM), NaCl (100 mM), MgCl2 (1 mM), CaCl2 (1 mM), MnCl2 (1 mM), pH 7). Solutions of known inhibitors and of the test substances are prepared in concentrations from 2×10^−12 to 2×10^−6 mol/l in assay buffer (BSA (0.5%, RIA grade or better); Tris-HCl (50 mM), NaCl (100 mM), MgCl2 (1 mM), CaCl2 (1 mM), MnCl2 (1 mM), pH 7). The blocked plates are emptied, and in each case 0.025 ml of this solution which contains a defined concentration (2×10^−12 to 2×10^−6 mol/l) either of a known inhibitor or of a test substance, are added to each well. 0.025 ml of a solution of the vitronectin receptor in assay buffer (0.03 mg/ml) is pipetted into each well of the plate and the plate is incubated at room temperature for 60-180 min on a shaker. In the meantime, a solution (6 ml/plate) of a murine monoclonal antibody specific for the β3 subunit of the vitronectin receptor is prepared in assay buffer (0.0015 mg/ml). A second rabbit antibody (0.001 ml of stock solution/6 ml of the murine monoclonal anti-β3 antibody solution) which is an anti-mouse Fc HRP antibody conjugate is added to this solution, and this mixture of murine anti-β3 antibody and rabbit anti-mouse Fc HRP antibody conjugate is incubated during the time of the receptor-inhibitor incubation. The test plates are washed four times with PBS solution which contains 0.05% Tween-20, and in each case 0.05 ml/well of the antibody mixture is pipetted into each well of the plate and incubated for 60-180 min. The plate is washed four times with PBS/0.05% Tween-20 and then developed with 0.05 ml/well of a PBS solution which contains 0.67 mg/ml of o-phenylenediamine and 0.012% of H2O2. Alternatively to this, o-phenylenediamine can be employed in a buffer (pH 5) which contains Na3PO4 and citric acid. The color development is stopped using 1 N H2SO4 (0.05 ml/well). The absorption for each well is measured at 492-405 nm and the data are evaluated by standard methods.
Background: ELISA stands for enzyme-linked immunosorbent assay.

The target in assay [2] is 293 cells cotransfected with αv and β3 subunits of the vitronectin receptor αvβ3, binding to human vitronectin (Homo sapiens, UniProt P05106+P06756). Description: Vitronectin/293 cell test (Vn/293 cell test). Type of assay: cell-based. The conditions noted are these: inhibition of binding of 293 cells to human vitronectin. The protocol: 2) Vitronectin/293 Cell Test
293 cells cotransfected with αv and β3 subunits of the vitronectin receptor αvβ3, binding to human vitronectin, sequence (P05106 whole entry): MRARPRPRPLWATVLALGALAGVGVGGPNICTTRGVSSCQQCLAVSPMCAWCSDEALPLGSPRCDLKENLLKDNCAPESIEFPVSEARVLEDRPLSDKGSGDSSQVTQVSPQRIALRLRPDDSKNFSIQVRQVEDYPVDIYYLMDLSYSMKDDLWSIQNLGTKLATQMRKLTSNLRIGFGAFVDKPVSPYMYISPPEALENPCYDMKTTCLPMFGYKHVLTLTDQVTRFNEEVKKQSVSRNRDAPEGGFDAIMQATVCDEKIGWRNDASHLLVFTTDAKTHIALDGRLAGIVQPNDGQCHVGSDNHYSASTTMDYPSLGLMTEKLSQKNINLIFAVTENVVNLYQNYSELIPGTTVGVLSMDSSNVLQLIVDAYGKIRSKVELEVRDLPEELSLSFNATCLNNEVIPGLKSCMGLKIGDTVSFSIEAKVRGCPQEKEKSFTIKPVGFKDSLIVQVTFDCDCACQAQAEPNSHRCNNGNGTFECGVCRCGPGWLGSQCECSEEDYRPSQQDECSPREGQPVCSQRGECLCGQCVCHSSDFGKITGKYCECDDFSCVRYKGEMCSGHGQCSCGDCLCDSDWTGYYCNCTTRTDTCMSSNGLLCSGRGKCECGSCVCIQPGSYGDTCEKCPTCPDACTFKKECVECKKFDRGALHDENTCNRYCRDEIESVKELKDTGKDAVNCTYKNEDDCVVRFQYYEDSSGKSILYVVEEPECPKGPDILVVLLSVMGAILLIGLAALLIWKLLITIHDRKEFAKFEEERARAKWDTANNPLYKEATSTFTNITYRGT
293 cells cotransfected with αv and β3 subunits of the vitronectin receptor αvβ3, binding to human vitronectin, sequence (P06756 whole entry): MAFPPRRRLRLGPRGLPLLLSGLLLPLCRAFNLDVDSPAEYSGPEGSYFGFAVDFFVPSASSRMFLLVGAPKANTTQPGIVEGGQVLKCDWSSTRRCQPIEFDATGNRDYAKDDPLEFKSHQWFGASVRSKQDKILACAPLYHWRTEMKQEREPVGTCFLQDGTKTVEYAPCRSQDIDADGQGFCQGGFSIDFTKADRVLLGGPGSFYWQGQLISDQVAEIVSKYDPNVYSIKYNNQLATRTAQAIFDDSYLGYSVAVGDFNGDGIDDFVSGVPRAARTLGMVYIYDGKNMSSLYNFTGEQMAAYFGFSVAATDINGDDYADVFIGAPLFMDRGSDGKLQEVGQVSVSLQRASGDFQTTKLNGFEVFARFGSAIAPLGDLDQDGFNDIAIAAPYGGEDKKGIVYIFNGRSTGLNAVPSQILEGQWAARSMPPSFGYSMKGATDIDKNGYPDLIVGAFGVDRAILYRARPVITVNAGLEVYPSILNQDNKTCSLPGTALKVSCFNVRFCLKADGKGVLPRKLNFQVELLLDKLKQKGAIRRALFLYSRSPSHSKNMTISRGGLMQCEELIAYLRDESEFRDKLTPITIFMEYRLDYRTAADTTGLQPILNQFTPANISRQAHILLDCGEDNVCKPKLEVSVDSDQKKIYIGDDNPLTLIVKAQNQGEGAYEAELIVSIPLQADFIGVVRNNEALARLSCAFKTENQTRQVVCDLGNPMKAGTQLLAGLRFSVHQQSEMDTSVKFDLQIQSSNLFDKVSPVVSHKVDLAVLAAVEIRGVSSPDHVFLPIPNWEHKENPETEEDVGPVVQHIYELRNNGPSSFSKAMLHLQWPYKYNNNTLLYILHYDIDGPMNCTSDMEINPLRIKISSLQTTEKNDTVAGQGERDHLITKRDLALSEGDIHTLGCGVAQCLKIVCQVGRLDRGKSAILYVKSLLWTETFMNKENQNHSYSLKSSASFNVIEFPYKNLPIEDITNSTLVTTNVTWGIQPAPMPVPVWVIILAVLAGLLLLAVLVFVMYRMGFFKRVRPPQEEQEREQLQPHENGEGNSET
In this test the inhibition of binding of 293 cells to human vitronectin (Vn) by the compounds of the invention is determined (the test method is abbreviated as Vn/293 cell test in the listing of the test results).
Purification of Human Vitronectin
Human vitronectin was isolated from human plasma and purified by affinity chromatography according to the method of Yatohgo et al., Cell Structure and Function 23 (1988) 281.
293 cells, a human embryonic kidney cell line, which were cotransfected with DNA sequences for the αv and β3 subunits of the vitronectin receptor αvβ3, were selected for a high rate of expression (>500,000 αvβ3 receptors/cell) according to the FACS method. The selected cells were cultured and sorted again by means of FACS in order to obtain a stable cell line (15 D) with expression rates>1,000,000 copies of αvβ3 per cell.
A Linbro 96-well tissue culture plate with a flat bottom was coated overnight at 4° C. with human vitronectin (0.01 mg/ml, 0.05 ml/well) in phosphate-buffered saline solution (PBS) and then blocked with 0.5% strength BSA (bovine serum albumin). Solutions of the test substances from 10^−10 mol/l to 2×10^−3 mol/l in glucose-containing DMEM medium were prepared and 0.05 ml/well of the solution were added to the plate in each case. The cells which expressed high levels of αvβ3 (for example 15 D) were suspended in glucose-containing DMEM medium and the suspension was adjusted to a content of 25,000 cells/0.05 ml of medium. 0.05 ml of this cell suspension was added to each well and the plate was incubated at 37° C. for 90 min. The plate was washed 3 times with warm PBS in order to remove unbound cells. The bound cells were lyzed in citrate buffer (25 mM, pH 5.0) which contained 0.25% Triton X-100. The hexoseamidase substrate p-nitrophenyl-N-acetyl-β-D-glucosaminide was then added and the plate was incubated at 37° C. for 90 min. The reaction was stopped with a glycine (50 mM)/EDTA (5 mM) buffer (pH 10.4) and the absorption of each well was measured at 405 to 650 nm. The data were analyzed according to standard methods.

Assay [3] has as its system bone resorption by osteoclasts. Nature of the assay: Pit Assay (osteoclast resorption test). Type of assay: cell-based. The note with it: inhibition of bone resorption. From the text: The inhibition of bone resorption by the compounds of the invention can be determined, for example, with the aid of an osteoclast resorption test (“Pit Assay”), for example analogously to WO-A-95/32710 which is incorporated herein by reference.

By IC50 is commonly meant the midpoint of a concentration-inhibition curve. A higher IC50 goes with weaker potency.

human vitronectin receptor αvβ3, sequence (P06756 31-889 limits assumed): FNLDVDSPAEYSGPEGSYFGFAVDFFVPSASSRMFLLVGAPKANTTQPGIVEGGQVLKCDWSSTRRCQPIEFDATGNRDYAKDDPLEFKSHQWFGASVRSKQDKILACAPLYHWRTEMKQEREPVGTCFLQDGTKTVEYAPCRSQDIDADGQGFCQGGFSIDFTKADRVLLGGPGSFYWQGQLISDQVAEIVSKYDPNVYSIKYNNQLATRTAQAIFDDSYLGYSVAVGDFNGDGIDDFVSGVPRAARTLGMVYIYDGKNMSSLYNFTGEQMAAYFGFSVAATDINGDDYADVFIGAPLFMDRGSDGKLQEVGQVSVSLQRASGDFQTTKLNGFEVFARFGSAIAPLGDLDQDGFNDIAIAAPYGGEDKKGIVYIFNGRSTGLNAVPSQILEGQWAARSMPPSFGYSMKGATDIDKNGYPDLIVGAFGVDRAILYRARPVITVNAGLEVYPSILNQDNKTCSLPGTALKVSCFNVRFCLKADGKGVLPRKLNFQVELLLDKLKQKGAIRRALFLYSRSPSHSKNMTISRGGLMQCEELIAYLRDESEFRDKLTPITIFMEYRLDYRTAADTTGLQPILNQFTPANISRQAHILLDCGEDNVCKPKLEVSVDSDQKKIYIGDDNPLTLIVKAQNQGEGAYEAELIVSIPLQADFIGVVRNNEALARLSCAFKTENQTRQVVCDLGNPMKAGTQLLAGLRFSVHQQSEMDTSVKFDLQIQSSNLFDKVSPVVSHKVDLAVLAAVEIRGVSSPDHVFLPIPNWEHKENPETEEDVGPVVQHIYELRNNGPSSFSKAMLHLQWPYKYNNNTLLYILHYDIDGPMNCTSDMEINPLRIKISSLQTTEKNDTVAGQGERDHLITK
human vitronectin receptor αvβ3, sequence (P06756 891-1048 limits assumed): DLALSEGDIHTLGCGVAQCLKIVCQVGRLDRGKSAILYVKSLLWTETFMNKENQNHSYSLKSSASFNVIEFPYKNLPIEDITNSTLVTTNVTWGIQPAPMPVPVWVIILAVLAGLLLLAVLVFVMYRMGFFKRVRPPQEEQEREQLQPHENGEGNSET
human vitronectin receptor αvβ3, sequence (P05106 27-788): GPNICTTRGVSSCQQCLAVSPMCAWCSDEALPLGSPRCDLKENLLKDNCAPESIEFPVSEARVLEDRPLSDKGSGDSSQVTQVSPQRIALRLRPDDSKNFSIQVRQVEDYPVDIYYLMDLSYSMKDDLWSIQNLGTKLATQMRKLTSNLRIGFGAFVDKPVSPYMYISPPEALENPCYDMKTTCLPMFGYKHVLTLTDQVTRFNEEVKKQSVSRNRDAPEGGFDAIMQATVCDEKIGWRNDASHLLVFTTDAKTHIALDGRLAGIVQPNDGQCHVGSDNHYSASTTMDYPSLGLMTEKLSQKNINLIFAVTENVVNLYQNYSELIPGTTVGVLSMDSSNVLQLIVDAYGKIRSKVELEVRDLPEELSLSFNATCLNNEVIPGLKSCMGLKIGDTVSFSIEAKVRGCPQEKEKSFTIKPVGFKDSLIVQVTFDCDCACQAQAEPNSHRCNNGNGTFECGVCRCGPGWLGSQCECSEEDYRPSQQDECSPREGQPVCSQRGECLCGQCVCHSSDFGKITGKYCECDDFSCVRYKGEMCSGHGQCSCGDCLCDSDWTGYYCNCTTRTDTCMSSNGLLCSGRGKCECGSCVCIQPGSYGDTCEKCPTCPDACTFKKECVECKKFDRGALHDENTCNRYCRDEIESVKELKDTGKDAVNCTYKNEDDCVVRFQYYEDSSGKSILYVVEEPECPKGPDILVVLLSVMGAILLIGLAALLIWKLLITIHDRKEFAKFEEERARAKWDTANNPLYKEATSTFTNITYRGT

`O=C(NC1=NCCCN1)C1CCN(c2ncnc3c2ncn3C[C@H](NS(=O)(=O)C(F)(F)F)C(=O)O)CC1` [Example 8, (2S)-3-(6-(4-(1,4,5,6-Tetrahydropyrimidin-2-ylcarbamoyl)-piperidin-1-yl)-purin-9-yl)-2-trifluoromethanesulfonylamino-propionic acid]: the IC50 in assay [1] stood at 85 nM.

For the compound `CC(C)CS(=O)(=O)N[C@@H](Cn1cnc2c(N3CCC(C(=O)NC4=NCCCN4)CC3)ncnc21)C(=O)O` [Example 10, (2S)-2-(2-Methylpropane-1-sulfonylamino)-3-(6-(4-(1,4,5,6-tetrahydropyrimidin-2-ylcarbamoyl)-piperidin-1-yl)-purin-9-yl)-propionic acid], the IC50 in assay [1] was determined as 4.2 nM; in assay [2] it was 1120 nM.

As to `O=C(NC1=NCCCN1)C1CCN(c2ncnc3c2ncn3C[C@H](NS(=O)(=O)CC(F)(F)F)C(=O)O)CC1` [Example 9, (2S)-3-(6-(4-(1,4,5,6-Tetrahydropyrimidin-2-ylcarbamoyl)-piperidin-1-yl)-purin-9-yl)-2-(2,2,2-trifluoro-ethanesulfonylamino)-propionic acid], the half-maximal inhibitory concentration (IC50) was 38 nM in assay [1] and 2500 nM in assay [2].

In the case of `O=C(NC1=NCCCN1)C1CCN(c2ncnc3c2ncn3C[C@H](NS(=O)(=O)c2ccc3ccccc3c2)C(=O)O)CC1` [Example 2, (2S)-2-(Naphthalene-2-sulfonylamino)-3-(6-(4-(1,4,5,6-tetrahydropyrimidin-2-ylcarbamoyl)-piperidin-1-yl)-purin-9-yl)-propionic acid], the half-maximal inhibitory concentration (IC50) is 2.3 nM in assay [3], 2.5 nM in assay [1] and 9 nM in assay [2].

For `O=C(NC1=NCCCN1)C1CCN(c2ncnc3c2ncn3C[C@H](NS(=O)(=O)c2cccc3ccccc23)C(=O)O)CC1` [Example 1, (2S)-2-(Naphthalene-1-sulfonylamino)-3-(6-(4-(1 ,4,5,6-tetrahydropyrimidin-2-ylcarbamoyl)-piperidin-1-yl)-purin-9-yl)-propionic acid], the IC50 in assay [3] was 0.8 nM; in assay [1], 1.9 nM; in assay [2], 30 nM.

Take `O=C(NC1=NCCCN1)C1CCN(c2ncnc3c2ncn3C[C@H](NS(=O)(=O)Cc2ccccc2)C(=O)O)CC1` [Example 7, (2S)-2-Phenylmethanesulfonylamino-3-(6-(4-(1,4,5,6-tetrahydropyrimidin-2-ylcarbamoyl)-piperidin-1-yl)-purin-9-yl)-propionic acid]: the figures for the 50% inhibitory concentration (IC50) in assay [1] and in assay [2] were 23 nM and 500 nM, respectively.

In the case of `CC(C)(C)c1ccc(S(=O)(=O)N[C@@H](Cn2cnc3c(N4CCC(C(=O)NC5=NCCCN5)CC4)ncnc32)C(=O)O)cc1` [Example 3, (2S)-2-(4-tert-Butyl-benzenesulfonylamino)-3-(6-(4-(1,4,5,6-tetrahydropyrimidin-2-ylcarbamoyl)-piperidin-1-yl)-purin-9-yl)-propionic acid], the 50% inhibitory concentration (IC50) in assay [1] was determined as 4.5 nM; in assay [2], 67 nM.

In the case of `O=C(NC1=NCCCN1)C1CCN(c2ncnc3c2ncn3C[C@H](NS(=O)(=O)c2ccc(C(F)(F)F)cc2)C(=O)O)CC1` [Example 5, (2S)-3-(6-(4-(1,4,5,6-Tetrahydropyrimidin-2-ylcarbamoyl)-piperidin-1-yl)-purin-9-yl)-2-(4-trifluoromethyl-benzenesulfonylamino)-propionic acid], the figures for the concentration for half-maximal inhibition (IC50) in assay [3], in assay [1] and in assay [2] were 15 nM, 3.2 nM and 28 nM, respectively.

`O=C(NC1=NCCCN1)C1CCN(c2ncnc3c2ncn3C[C@H](NS(=O)(=O)c2cccc(C(F)(F)F)c2)C(=O)O)CC1` [Example 6, (2S)-3-(6-(4-(1,4,5,6-Tetrahydropyrimidin-2-ylcarbamoyl)-piperidin-1-yl)-purin-9-yl)-2-(3-trifluoromethyl-benzenesulfonylamino)-propionic acid]: the IC50 in assay [1] was determined as 3.4 nM; in assay [2], 42 nM.

Turning to `Cc1cc(C)c(S(=O)(=O)N[C@@H](Cn2cnc3c(N4CCC(C(=O)NC5=NCCCN5)CC4)ncnc32)C(=O)O)c(C)c1` [Example 12, (2S)-3-(6-(4-(1,4,5,6-Tetrahydropyrimidin-2-ylcarbamoyl)-piperidin-1-yl)-purin-9-yl)-2-(2,4,6-trimethyl-benzenesulfonylamino)-propionic acid], the IC50 was found to be 26 nM in assay [3], 5 nM in assay [1] and 38 nM in assay [2].

Regarding `CCCS(=O)(=O)N[C@@H](Cn1cnc2c(N3CCC(C(=O)NC4=NCCCN4)CC3)ncnc21)C(=O)O` [Example 4, (2S)-2-(Propane-1-sulfonylamino)-3-(6-(4-(1,4,5,6-tetrahydropyrimidin-2-ylcarbamoyl)-piperidin-1-yl)-purin-9-yl)-propionic acid], the figures for the concentration for half-maximal inhibition (IC50) in assay [1] and in assay [2] were 25 nM and 1400 nM, respectively.

Consider `Cc1ccc(S(=O)(=O)N[C@@H](Cn2cnc3c(N4CCC(C(=O)NC5=NCCCN5)CC4)ncnc32)C(=O)O)cc1` [Example 11, (2S)-3-(6-(4-(1,4,5,6-Tetrahydropyrimidin-2-ylcarbamoyl)-piperidin-1-yl)-purin-9-yl)-2-(toluene-4-sulfonylamino)-propionic acid], for which the results for the IC50 in assay [1] and in assay [2] were 6.5 nM and 87 nM, respectively.

For the origin of these results see patent publication US6747016B1, “Substituted purine derivatives as inhibitors of cell adhesion” (Aventis Pharma Deutschland GmbH, priority 1999, dated 2004).
